Experimental data from paper PMC12661400, “Oral bioavailable ITRI-148 degrades androgen receptor variants and overcomes antiandrogen resistance in advanced prostate cancer” (Neoplasia (New York, N.Y.), 2025).
Where two headings read alike, the source gives them in different places.

What was measured:
[1] = Toxicokinetic profiling in rats; assay type: in vivo; conditions: Sprague-Dawley, rat, plasma, po; for AUC: read-out: AUC24
Description: (§1) Repeated-dose toxicity and toxicokinetic studies
Repeated-dose oral toxicity study and toxicokinetic (TK) profiling was conducted in Sprague-Dawley rats. ITRI-148 was administered once daily using oral gavage at doses of 100, 300, 600, and 1000 mg/kg/day for 7 consecutive days, followed by a 7-day recovery period. Each dose group comprised 3 animals designated for toxicokinetic (TK) analysis and 6 animals for dose-range finding (DRF) evaluation. Clinical observations, body weights, and food consumption were monitored daily throughout the dosing and recovery periods. After the first (Day 0) and last (Day 6) dosing, serial blood samples were collected at the pose-dose time points of 0.5, 1, 2, 4, 7, 24, 48 and 72 hours for TK profiling analysis. Plasma concentrations of ITRI-148 were quantified using a validated LC-MS/MS method. Analysis was performed using a Sciex QTrap 4000 mass spectrometer coupled with a Shimadzu LC system. The chromatographic separation was achieved on a C18 reverse-phase column with a gradient elution of acetonitrile and 0.1% formic acid in water. The lower limit of quantification (LLOQ) […]
was 5 ng/mL. All samples were analyzed in duplicate. […]
(§2) All procedures were conducted in compliance with institutional animal care and use guidelines. […]
(§3) Targeting androgen receptor and the variants by an orally bioavailable
(§4) Proteolysis Targeting Chimeras compound in castration resistant prostate cancer

[2] = Repeated-dose toxicity study: serum clinical chemistry; assay type: in vivo, Sprague-Dawley rats; conditions: rat serum
Description: as §1
(§5) Repeated-dose oral toxicity study and toxicokinetic (TK) profiling was conducted in Sprague-Dawley rats. ITRI-148 was administered once daily using oral gavage at doses of 100, 300, 600, and 1000 mg/kg/day for 7 consecutive days, followed by a 7-day recovery period. Each dose group comprised 3 animals designated for toxicokinetic (TK) analysis and 6 animals for dose-range finding (DRF) evaluation. Clinical observations, body weights, and food consumption were monitored daily throughout the dosing and recovery periods. […]
(§6) All samples were analyzed in duplicate. Hematology and serum clinical chemistry analyses were performed on Day 7 (end of dosing) and Day 14 (end of recovery). […]
as §2, §3, §4

[3] = Metabolic stability in mouse liver microsomes; assay type: in vitro ADME
Description: (§7) The metabolic stability of all PROTAC compounds in the screening phase (Table 1) was evaluated using mouse liver microsomes. Incubations were performed at 37 °C in phosphate buffer (pH 7.4) containing NADPH (1 mM), 0.5 mg/mL microsomal protein and 1 μM ITRI-148 (0.25 % DMSO) for 0, 5, 20, or 30 minutes, followed by quenching with acetonitrile (1:3, v/v) for HPLC analysis. To evaluate the species-specific metabolism of ITRI-148, its stability was assessed in liver microsomes from human, dog, rat, and mouse using same incubation conditions as above, with the time extending to 0, 15, 30, 45, and 60 minutes, followed by acetonitrile quenching (1:10) and LC-MS/MS analysis.

[4] = Metabolic stability in liver microsomes; assay type: in vitro ADME; conditions: for Remaining of intact drug (%): 1 μM, incubation up to 60 minutes; for half-life at 1 μM: pH 7.4, read-out: Plasma Stability t1/2 (microsome panel)
Description: as §7

[5] = Repeated-dose toxicity study: hematology; assay type: in vivo, Sprague-Dawley rats; conditions: rats
Description: as §1, §5, §6, §2, §3, §4

[6] = 100 mg/kg, 7-times repeated dosing 100 mg/kg
[7] = 100 mg/kg, single dosing 100 mg/kg
[8] = 300 mg/kg, 7-times repeated dosing 300 mg/kg
[9] = 300 mg/kg, single dosing 300 mg/kg
[10] = 600 mg/kg, 7-times repeated dosing 600 mg/kg
[11] = 600 mg/kg, single dosing 600 mg/kg
[12] = 1000 mg/kg, 7-times repeated dosing 1000 mg/kg
[13] = 1000 mg/kg, single dosing 1000 mg/kg
[14] = PO 100 mg/kg/day 7 days, Day 14 (recovery)
[15] = PO 300 mg/kg/day 7 days, Day 14 (recovery)
[16] = PO 600 mg/kg/day 7 days, Day 14 (recovery)
[17] = PO 1000 mg/kg/day 7 days, Day 7
[18] = PO 1000 mg/kg/day 7 days, Day 14 (recovery)

O=C1CCC(N2C(=O)c3cccc(NCC(=O)N4CCC(N5CCC(C#Cc6ccc(C7CCN(C8=Nn9c(nnc9C(F)(F)F)CC8)CC7)cc6)CC5)CC4)c3C2=O)C(=O)N1 (stereo not shown) [ITRI-148]
AUC(0-t) [1, 6]: 8750 ng·h/mL | Cmax [1, 6]: 561 ± 62.1 ng/mL | AUC [1, 6]: 8330 ng·h/mL | AUC(0-t) [1, 7]: 9300 ng·h/mL | Cmax [1, 7]: 466 ± 13.6 ng/mL | AUC [1, 7]: 7670 ng·h/mL | AUC(0-t) [1, 8]: 20500 ng·h/mL | Cmax [1, 8]: 1050 ng/mL | AUC [1, 8]: 17000 ng·h/mL | AUC(0-t) [1, 9]: 20100 ng·h/mL | Cmax [1, 9]: 659 ± 184 ng/mL | AUC [1, 9]: 13000 ng·h/mL | AUC(0-t) [1, 10]: 35200 ng·h/mL | Cmax [1, 10]: 1440 ng/mL | AUC [1, 10]: 25200 ng·h/mL | AUC(0-t) [1, 11]: 27100 ng·h/mL | Cmax [1, 11]: 914 ± 296 ng/mL | AUC [1, 11]: 15100 ng·h/mL | AUC(0-t) [1, 12]: 56000 ng·h/mL | Cmax [1, 12]: 1910 ng/mL | AUC [1, 12]: 36600 ng·h/mL | AUC(0-t) [1, 13]: 40400 ng·h/mL | Cmax [1, 13]: 1000 ng/mL | AUC [1, 13]: 17400 ng·h/mL | ALT ([2]; PO 100 mg/kg/day 7 days, Day 7): 102.3 ± 40.6 U/L | AST ([2]; PO 100 mg/kg/day 7 days, Day 7): 188.7 ± 59 U/L | BUN ([2]; PO 100 mg/kg/day 7 days, Day 7): 17.73 ± 2.8 mg/dL | CRE ([2]; PO 100 mg/kg/day 7 days, Day 7): 0.63 ± 0.06 mg/dL | ALT [2, 14]: 84.3 ± 31.6 U/L | AST [2, 14]: 136.7 ± 10.4 U/L | BUN [2, 14]: 13.23 ± 1.12 mg/dL | CRE [2, 14]: 0.4 ± 0.1 mg/dL | ALT ([2]; PO 300 mg/kg/day 7 days, Day 7): 85.3 ± 10 U/L | AST ([2]; PO 300 mg/kg/day 7 days, Day 7): 177 ± 37.4 U/L | BUN ([2]; PO 300 mg/kg/day 7 days, Day 7): 20.53 ± 2.06 mg/dL | CRE ([2]; PO 300 mg/kg/day 7 days, Day 7): 0.63 ± 0.06 mg/dL | ALT [2, 15]: 60.7 ± 7.1 U/L | AST [2, 15]: 122 ± 5.3 U/L | BUN [2, 15]: 10.9 ± 1.13 mg/dL | CRE [2, 15]: 0.33 ± 0.06 mg/dL | ALT ([2]; PO 600 mg/kg/day 7 days, Day 7): 76.7 ± 2.1 U/L | AST ([2]; PO 600 mg/kg/day 7 days, Day 7): 196 ± 66 U/L | BUN ([2]; PO 600 mg/kg/day 7 days, Day 7): 21.8 ± 1.81 mg/dL | CRE ([2]; PO 600 mg/kg/day 7 days, Day 7): 0.57 ± 0.06 mg/dL | ALT [2, 16]: 69.3 ± 11.5 U/L | AST [2, 16]: 170 ± 41.7 U/L | BUN [2, 16]: 13.03 ± 0.83 mg/dL | CRE [2, 16]: 0.47 ± 0.06 mg/dL | ALT [2, 17]: 68 ± 15.4 U/L | AST [2, 17]: 132.7 ± 14.5 U/L | BUN [2, 17]: 16.77 ± 2.32 mg/dL | CRE [2, 17]: 0.57 ± 0.06 mg/dL | ALT [2, 18]: 94.3 ± 41.2 U/L | AST [2, 18]: 150.3 ± 43 U/L | BUN [2, 18]: 16.23 ± 4.71 mg/dL | CRE [2, 18]: 0.37 ± 0.06 mg/dL | Remaining of intact drug (%) ([3]; mice liver microsomes, 1 μM, incubation up to 60 minutes): 80.7 ± 1.8% | remaining at 0.5 h, 1 μM ([3]; mouse, liver microsomes, pH 7.4, mice microsomes, 30 min of incubation, read-out: Microsome stability (% remaining)): 97.2% | half-life at 1 μM ([3]; mouse, pH 7.4, mice liver microsomes, read-out: Plasma Stability t1/2 (microsome panel)): > 1 h | Remaining of intact drug (%) ([4]; dog liver microsomes): 88.3 ± 4.3% | Remaining of intact drug (%) ([4]; human liver microsomes): 85.9 ± 2.2% | half-life at 1 μM ([4]; dog liver microsomes): > 1 h | half-life at 1 μM ([4]; human liver microsomes): > 1 h | half-life at 1 μM ([4]; rat liver microsomes): > 1 h | Remaining of intact drug (%) ([4]; rat liver microsomes): 75.3 ± 1.2% | HGB ([5]; PO 100 mg/kg/day 7 days, Day 7): 20.3 ± 0.2 g/dL | PLT ([5]; PO 100 mg/kg/day 7 days, Day 7): 915 ± 368 x103 cells/µL | RBC ([5]; PO 100 mg/kg/day 7 days, Day 7): 7.51 ± 0.13 x106 cells/µL | WBC ([5]; PO 100 mg/kg/day 7 days, Day 7): 8.72 ± 2.37 x103 cells/µL | HGB [5, 14]: 21.9 ± 3.2 g/dL | PLT [5, 14]: 1049 ± 231 x103 cells/µL | RBC [5, 14]: 8.18 ± 1.17 x106 cells/µL | WBC [5, 14]: 7.52 ± 5.51 x103 cells/µL | HGB ([5]; PO 300 mg/kg/day 7 days, Day 7): 20 ± 1.4 g/dL | PLT ([5]; PO 300 mg/kg/day 7 days, Day 7): 956 ± 108 x103 cells/µL | RBC ([5]; PO 300 mg/kg/day 7 days, Day 7): 7.15 ± 0.4 x106 cells/µL | WBC ([5]; PO 300 mg/kg/day 7 days, Day 7): 8.19 ± 2.89 x103 cells/µL | HGB [5, 15]: 24.1 ± 0.4 g/dL | PLT [5, 15]: 1128 ± 236 x103 cells/µL | RBC [5, 15]: 8.91 ± 0.17 x106 cells/µL | WBC [5, 15]: 9.56 ± 1.57 x103 cells/µL | HGB ([5]; PO 600 mg/kg/day 7 days, Day 7): 20.6 ± 1.9 g/dL | PLT ([5]; PO 600 mg/kg/day 7 days, Day 7): 986 ± 252 x103 cells/µL | RBC ([5]; PO 600 mg/kg/day 7 days, Day 7): 7.51 ± 0.53 x106 cells/µL | WBC ([5]; PO 600 mg/kg/day 7 days, Day 7): 8.68 ± 4.58 x103 cells/µL | HGB [5, 16]: 21.6 ± 0.8 g/dL | PLT [5, 16]: 1022 ± 446 x103 cells/µL | RBC [5, 16]: 7.87 ± 0.45 x106 cells/µL | WBC [5, 16]: 5.27 ± 2.39 x103 cells/µL | HGB [5, 17]: 20.7 ± 1.3 g/dL | PLT [5, 17]: 892 ± 66 x103 cells/µL | RBC [5, 17]: 7.52 ± 0.31 x106 cells/µL | WBC [5, 17]: 7.48 ± 2.72 x103 cells/µL | HGB [5, 18]: 21.6 ± 1 g/dL | PLT [5, 18]: 1140 ± 222 x103 cells/µL | RBC [5, 18]: 8.33 ± 0.35 x106 cells/µL | WBC [5, 18]: 8.28 ± 0.31 x103 cells/µL
